PubChem BioAssay (NCI)
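Interpolation was linear, between the two tested concentrations surrounding the appropriate level; five concentrations were tested over 48 hours in 96-well plates. At the GI50, growth is halved. TGI is the concentration that stops growth completely.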

Key:
Experiment in all cases: NCI-60 cell line screen, 48 h
[1] = tested on: SK-MEL-5 melanoma
[2] = tested on: TK-10 renal
[3] = tested on: OVCAR-3 ovarian
[4] = tested on: SNB-75 CNS
[5] = tested on: HCC-2998 colon
[6] = tested on: BT-549 breast
[7] = tested on: RPMI-8226 leukemia
[8] = tested on: NCI-H23 lung
[9] = tested on: MALME-3M melanoma
[10] = tested on: OVCAR-5 ovarian
[11] = tested on: UO-31 renal
[12] = tested on: COLO 205 colon
[13] = tested on: CCRF-CEM leukemia
[14] = tested on: K-562 leukemia
[15] = tested on: UACC-257 melanoma
[16] = tested on: SR leukemia
[17] = tested on: MOLT-4 leukemia
[18] = tested on: RXF 393 renal
[19] = tested on: LOX IMVI melanoma
[20] = tested on: HOP-62 NSCLC
[21] = tested on: 786-0 renal
[22] = tested on: OVCAR-4 ovarian
[23] = tested on: SF-539 CNS
[24] = tested on: HOP-92 NSCLC
[25] = tested on: HL-60(TB) leukemia
[26] = tested on: KM12 colon
[27] = tested on: HCT-15 colon
[28] = tested on: NCI-H460 lung
[29] = tested on: HCT-116 colon
[30] = tested on: SF-295 CNS
[31] = tested on: M14 melanoma
[32] = tested on: A549 NSCLC
[33] = tested on: EKVX NSCLC
[34] = tested on: ACHN renal
[35] = tested on: DU-145 prostate
[36] = tested on: T-47D breast
[37] = tested on: UACC-62 melanoma
[38] = tested on: SW-620 colon
[39] = tested on: PC-3 prostate
[40] = tested on: SK-MEL-2 melanoma
[41] = tested on: HS 578T breast
[42] = tested on: U251 CNS
[43] = tested on: NCI/ADR-RES ovarian
[44] = tested on: SK-MEL-28 melanoma
[45] = tested on: SN12C renal
[46] = tested on: SK-OV-3 ovarian
[47] = tested on: MDA-MB-435
[48] = tested on: HT29 colon
[49] = tested on: SNB-19 CNS
[50] = tested on: NCI-H522 lung
[51] = tested on: NCI-H226 lung
[52] = tested on: SF-268 CNS
[53] = tested on: A498 renal
[54] = tested on: OVCAR-8 ovarian
[55] = tested on: MCF7 breast
[56] = tested on: IGROV1 ovarian
[57] = tested on: CAKI-1 renal
[58] = tested on: MDA-MB-231 breast

## CCN(C(=O)c1cc(F)ccc1Oc1cncnc1N1CC2(CCN(CC3CCC(NS(=O)(=O)CC)CC3)CC2)C1)C(C)C (stereo unspecified)
[1]
  GI50: > 100 µM
  TGI: > 100 µM
[2]
  GI50: > 100 µM
  TGI: > 100 µM
[3]
  GI50: > 100 µM
  TGI: > 100 µM
[4]
  GI50: > 100 µM
  TGI: > 100 µM
[5]
  GI50: > 100 µM
  TGI: > 100 µM
[6]
  GI50: > 100 µM
  TGI: > 100 µM
[7]
  GI50: > 100 µM
  TGI: > 100 µM
[8]
  GI50: > 100 µM
  TGI: > 100 µM
[9]
  GI50: > 100 µM
  TGI: > 100 µM
[10]
  GI50: > 100 µM
  TGI: > 100 µM
[11]
  GI50: > 100 µM
  TGI: > 100 µM
[12]
  GI50: > 100 µM
  TGI: > 100 µM
[13]
  GI50: > 100 µM
  TGI: > 100 µM
[14]
  GI50: > 100 µM
  TGI: > 100 µM
[15]
  GI50: > 100 µM
  TGI: > 100 µM
[16]
  GI50: > 100 µM
  TGI: > 100 µM
[17]
  GI50: > 100 µM
  TGI: > 100 µM
[18]
  GI50: > 100 µM
  TGI: > 100 µM
[19]
  GI50: > 100 µM
  TGI: > 100 µM
[20]
  GI50: > 100 µM
  TGI: > 100 µM
[21]
  GI50: > 100 µM
  TGI: > 100 µM
[22]
  GI50: > 100 µM
  TGI: > 100 µM
[23]
  GI50: > 100 µM
  TGI: > 100 µM
[24]
  GI50: > 100 µM
  TGI: > 100 µM
[25]
  GI50: > 100 µM
  TGI: > 100 µM
[26]
  GI50: > 100 µM
  TGI: > 100 µM
[27]
  GI50: > 100 µM
  TGI: > 100 µM
[28]
  GI50: > 100 µM
  TGI: > 100 µM
[29]
  GI50: > 100 µM
  TGI: > 100 µM
[30]
  GI50: > 100 µM
  TGI: > 100 µM
[31]
  GI50: > 100 µM
  TGI: > 100 µM
[32]
  GI50: > 100 µM
  TGI: > 100 µM
[33]
  GI50: > 100 µM
  TGI: > 100 µM
[34]
  GI50: > 100 µM
  TGI: > 100 µM
[35]
  GI50: > 100 µM
  TGI: > 100 µM
[36]
  GI50: > 100 µM
  TGI: > 100 µM
[37]
  GI50: > 100 µM
  TGI: > 100 µM
[38]
  GI50: > 100 µM
  TGI: > 100 µM
[39]
  GI50: > 100 µM
  TGI: > 100 µM
[40]
  GI50: > 100 µM
  TGI: > 100 µM
[41]
  GI50: > 100 µM
  TGI: > 100 µM
[42]
  GI50: > 100 µM
  TGI: > 100 µM
[43]
  GI50: > 100 µM
  TGI: > 100 µM
[44]
  GI50: > 100 µM
  TGI: > 100 µM
[45]
  GI50: > 100 µM
  TGI: > 100 µM
[46]
  GI50: > 100 µM
  TGI: > 100 µM
[47]
  GI50: > 100 µM
  TGI: > 100 µM
[48]
  GI50: > 100 µM
  TGI: > 100 µM
[49]
  GI50: > 100 µM
  TGI: > 100 µM
[50]
  GI50: > 100 µM
  TGI: > 100 µM
[51]
  GI50: > 100 µM
  TGI: > 100 µM
[52]
  GI50: > 100 µM
  TGI: > 100 µM
[53]
  GI50: > 100 µM
  TGI: > 100 µM
[54]
  GI50: > 100 µM
  TGI: > 100 µM
[55]
  GI50: > 100 µM
  TGI: > 100 µM
[56]
  GI50: > 100 µM
  TGI: > 100 µM
[57]
  GI50: > 100 µM
  TGI: > 100 µM
[58]
  GI50: > 100 µM
  TGI: > 100 µM
